The values that follow come from patent US5504084A, “Pharmaceutical for the treatment of skin disorders” (priority 1994, dated 1996).

For data set [1], the system named is Normal human epidermal keratinocytes (NHEK). The data set is described as follows: Inhibition of NHEK proliferation, BrdU incorporation (in vitro DNA synthesis). It is filed as cell-based. As to conditions: 18-24 hours; for inhibition at 100 µM: 10^-4 M; for inhibition at 10 µM: 10^-5 M. As for the experimental part: Cells: Normal human epidermal keratinocytes (NHEK, Clonetics Corp., San Diego, Calif.).
Labelling Reagent: Aqueous solution of 5-bromo-2'-deoxyuridine and 5-fluoro-2'-deoxyuridine (Amersham Corp., II).
Peroxidase-anti-mouse Immunoglobulin (Ig from pooled sheep antisera, Amersham Corp., II).
Peroxidase substrate: ABTS (2,2'-azino-di-(3-ethyl-benzthiazoline sulphonate)! Amersham Corp., II).
Compounds: Compounds are dissolved in absolute ethanol (final concentration≤0.1%). Various drug concentrations are prepared in thymidine free keratinocyte growth medium (KGM without hydrocortisone, Clonetics Corp., Calif.) in the presence of BrdU.
Dynatech MR 7000 microplate reader with 410 nm filter.
Keratinocytes are seeded into 96-well flat bottom (6.4 mm diameter) culture dishes at 5,000 cells/well. The cells are allowed to grow (2-3days) and then dosed with various concentrations of compounds prepared in KGM without thymidine, without hydrocortisone in the presence of BrdU (1:200). After 18-24 hours at 37° C., 5% CO2, the cells are washed with warm PBS and fixed with acetic acid/ethanol for 30 minutes at room temperature. After washing the wells with PBS/0.1% Tween-20, the remaining electrostatic sites on the polystyrene plates are blocked by 3% BSA in PBS/0.1% Tween-20. Anti-bromodeoxyuridine antibody solution with nuclease for denaturing DNA is added to each well and allowed to incubate for 2 hours at 37° C., 5% CO2. The plates were again washed with PBS/0.1% Tween-20 and then incubated at room temperature with peroxidase lined anti-mouse immunoglobulin (1:600). After washing off the second antibody, 1 mM ABTS substrate solution is added to all wells until the desired color intensity (green) is achieved. The color development is stopped by the addition of a Stopping Agent. The absorbance is then measured at 410 nm with a microplate reader using cells in wells not exposed to BrdU as blanks.
The intensity of the color reaction is proportional to the BrdU incorporated by proliferating cells. The amount of BrdU incorporated in treated cells in wells is compared to those of untreated controls as follows: [formula]
In general terms: Incorporation of labelled thymidine or its analogues reports DNA synthesis.

A short description of data set [2]: Acute toxicity after intraperitoneal administration, NMRI mouse. As to conditions: in vivo, ip, 3 weeks, Litchfield and Wilcox. As for the experimental part:
The acute toxicity after intraperitoneal administration of the test substances was determined with NMRI mice (20 to 25 g) and SD rats (120 to 195 g). The test substance was suspended in a 1% strength sodium carboxymethylcellulose solution. The different dosages of the test substance were administered to the mice in a volume of 10 ml/kg of body weight and to the rats in a volume of 5 ml/kg of body weight. Per dosage, 10 animals were used. After 3 weeks, the acute toxicity was determined by the method of Litchfield and Wilcox.

The subject of another data set is psoriasis patients. Conditions: cited from earlier work.
For data set [3] the following is noted: European Patent 13,376; cited from earlier work.

In the case of `C/C(O)=C(\C#N)C(=O)Nc1ccc(C(F)(F)F)cc1` [Compound 2, N-(4-trifluoromethylphenyl)-2-cyano-3-hydroxycrotonamide], in data set [1], the inhibition (usually the change of the read-out against control, counted positive when it falls) at 100 µM was 84%; the inhibition at 10 µM came out at 49%; inhibition was half-maximal at 15.5 µM (IC50). Also, the LD50 (usually the dose expected to kill half of the subjects tested) at 504 h in data set [2] amounted to 150 mg/kg.

Turning to cyclosporine A, in the data set with psoriasis patients (in vivo, po), the “most limiting side effect” value is reported as “kidney dysfunction”; the side effects result is “a number of side effects, most of which are transient and not serious”. In addition, the “success rate in severe psoriasis” value with psoriasis patients (oral, patients with severe psoriasis) was “high success rate”.

As for `Cc1oncc1C(=O)Nc1ccc(C(F)(F)F)cc1` [Compound 1, N-(4-trifluoromethylphenyl)-5-methylisoxazole-4-carboxamide], in data set [1], 100 µM produced 87% inhibition, the inhibition at 10 µM was determined as 22% and the IC50 (usually the concentration needed to halve the response being measured) was found to be 18 µM. Besides, 1 µM produced 12% inhibition in data set [1] (10^-6 M). Also, the anti-inflammatory property result in data set [3] is given as “anti-inflammatory”.
